# According to US20260262643A1, “HERBICIDAL BENZOXAZINES” (FMC CORPORATION, priority 2022, published 2026):
# What was measured:
# blackgrass [1] = assay: Test C preemergence; format: in vivo, Alopecurus myosuroides; conditions: 0 to 100 scale (0 no effect, 100 complete control); for Blackgrass plant response rating: preemergence
# Method in brief: (§1)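 Visual injury ratings on a 0–100 scale (100 = complete control) were made against untreated controls 10 days after treatment in the greenhouse. Compounds, formulated with surfactant in non-phytotoxic solvent, were sprayed on soil preemergence or onto one- to two-leaf plants 2–10 cm tall postemergence.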
# corn [2] = assay: Test C preemergence; format: in vivo, Zea mays; conditions: preemergence, 0 to 100 scale (0 no effect, 100 complete control)
# Method in brief: as §1
# foxtail, giant [3] = assay: Test C preemergence; format: in vivo, Setaria faberi; conditions: preemergence, 0 to 100 scale (0 no effect, 100 complete control)
# Method in brief: as §1
# goosegrass [4] = assay: Test C preemergence; format: in vivo, Eleusine indica; conditions: preemergence, 0 to 100 scale (0 no effect, 100 complete control)
# From the text: (§2) Seeds of plant species selected from barnyardgrass (Echinochloa crusgalli), blackgrass (Alopecurus myosuroides), corn (Zea mays), foxtail, giant (giant foxtail, Setaria faberi), green foxtail (Setaria viridis), goosegrass (Eleusine indica), kochia (Bassia scoparia), oat, wild (wild oat, Avena fatua), pigweed, palmer (palmer amaranth, palmer pigweed, Amaranthus palmeri), Pigweed, Redroot (redroot pigweed, Amaranthus retroflexus), ragweed (common ragweed, Ambrosia artemisiifolia), ryegrass, Italian ([…] ryegrass, Lolium multiflorum), soybean (Glycine max), and wheat (Triticum aestivum) were planted into a blend of loam soil and sand and treated preemergence with a directed soil spray using test chemicals formulated in a non-phytotoxic solvent mixture which included a surfactant. At the same time, plants selected from these crops and weed species and also galium (catchweed bedstraw, Galium aparine) and horseweed (Erigeron canadensis) were planted in pots containing the same blend of loam soil and sand and treated with postemergence applications of test chemicals formulated in the same manner. Plants ranged in height from 2 to 10 cm and were in the one- to two-leaf stage for the postemergence treatment. Treated plants and untreated controls were maintained in a greenhouse for 10 days, after which time all treated plants were compared to untreated controls and visually evaluated for injury. Plant response ratings, summarized in Table C, are based on a 0 to 100 scale where 0 is no effect and 100 is complete control. A dash (-) response means no test result.
# kochia [5] = assay: Test C preemergence; format: in vivo, Bassia scoparia; conditions: preemergence, 0 to 100 scale (0 no effect, 100 complete control)
# Method in brief: as §1
# oat, wild [6] = assay: Test C preemergence; format: in vivo, Avena fatua; conditions: preemergence, 0 to 100 scale (0 no effect, 100 complete control)
# Method in brief: as §1
# pigweed, palmer [7] = assay: Test C preemergence; format: in vivo, Amaranthus palmeri; conditions: preemergence, 0 to 100 scale (0 no effect, 100 complete control)
# Method in brief: as §1
# ragweed [8] = assay: Test C preemergence; format: in vivo, Ambrosia artemisiifolia; conditions: preemergence, 0 to 100 scale (0 no effect, 100 complete control)
# Method in brief: as §1
# ryegrass, Italian [9] = assay: Test C preemergence; format: in vivo, Lolium multiflorum; conditions: preemergence, 0 to 100 scale (0 no effect, 100 complete control)
# Method in brief: as §1
# soybean [10] = assay: Test C preemergence; format: in vivo, Glycine max; conditions: preemergence, 0 to 100 scale (0 no effect, 100 complete control)
# Method in brief: as §1
# wheat [11] = assay: Test C preemergence; format: in vivo, Triticum aestivum; conditions: preemergence, 0 to 100 scale (0 no effect, 100 complete control)
# Method in brief: as §1
# blackgrass [12] = assay: Test C postemergence; format: in vivo, Alopecurus myosuroides; conditions: 10 days
# Method in brief: as §1
# corn [13] = assay: Test C postemergence; format: in vivo, Zea mays; conditions: 10 days
# Method in brief: as §1
# foxtail, giant [14] = assay: Test C postemergence; format: in vivo, Setaria faberi; conditions: 10 days
# Method in brief: as §1
# goosegrass [15] = assay: Test C postemergence; format: in vivo, Eleusine indica; conditions: 10 days
# From the text: as §2
# kochia [16] = assay: Test C postemergence; format: in vivo, Bassia scoparia; conditions: postemergence, 10 days
# Method in brief: as §1
# oat, wild [17] = assay: Test C postemergence; format: in vivo, Avena fatua; conditions: postemergence, 10 days
# Method in brief: as §1
# pigweed, palmer [18] = assay: Test C postemergence; format: in vivo, Amaranthus palmeri; conditions: postemergence, 10 days
# Method in brief: as §1
# ragweed [19] = assay: Test C postemergence; format: in vivo, Ambrosia artemisiifolia; conditions: postemergence, 10 days
# Method in brief: as §1
# ryegrass, Italian [20] = assay: Test C postemergence; format: in vivo, Lolium multiflorum; conditions: postemergence, 10 days
# Method in brief: as §1
# soybean [21] = assay: Test C postemergence; format: in vivo, Glycine max; conditions: postemergence, 10 days
# Method in brief: as §1
# wheat [22] = assay: Test C postemergence; format: in vivo, Triticum aestivum; conditions: postemergence, 10 days
# Method in brief: as §1
# galium = assay: Test C postemergence; format: in vivo, Galium aparine; conditions: 10 days
# Method in brief: as §1
# horseweed = assay: Test C postemergence; format: in vivo, Erigeron canadensis; conditions: 10 days
# Method in brief: as §1
# barnyardgrass = assay: Test D flooded paddy test; format: in vivo, Echinochloa crus-galli; conditions: 250 g ai/ha, applied to paddy water, visual rating after 13 to 14 days, scale 0 to 100 (0 no effect, 100 complete control)
# Method in brief: (§3)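 2-leaf plants; flood 3 cm above soil; compound dosed into paddy water; greenhouse 13–14 d; visual rating vs controls, 0–100 (100 = complete control); dash = not tested.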
# ducksalad = assay: Test D flooded paddy test; format: in vivo, Heteranthera limosa; conditions: 250 g ai/ha, applied to paddy water, visual rating after 13 to 14 days, scale 0 to 100 (0 no effect, 100 complete control)
# Method in brief: as §3
# rice = assay: Test D flooded paddy test; format: in vivo, Oryza sativa; conditions: 250 g ai/ha, applied to paddy water, visual rating after 13 to 14 days, scale 0 to 100 (0 no effect, 100 complete control)
# Method in brief: as §3
# sedge, umbrella = assay: Test D flooded paddy test; format: in vivo, Cyperus difformis; conditions: 250 g ai/ha, applied to paddy water, visual rating after 13 to 14 days, scale 0 to 100 (0 no effect, 100 complete control)
# Method in brief: as §3
# [23] = 125 g ai/ha, postemergence, 0 to 100 scale, 0 no effect, 100 complete control
# [24] = Postemergence, 500 g ai/ha, visual 0 to 100 scale (0 no effect, 100 complete control)
# [25] = 125 g ai/ha, 0 to 100 scale, 0 no effect, 100 complete control
# [26] = 500 g ai/ha, postemergence, 0 to 100 scale (0 no effect, 100 complete control)
# [27] = 500 g ai/ha, 0 to 100 scale (0 no effect, 100 complete control)
compound,measurement,setting,value
Cc1cccc2c1O[C@@H](C)CN2C(=O)c1cccc(-n2nccn2)c1 [Compound 282],"Plant response rating, Blackgrass","blackgrass [1]; Preemergence, 500 g ai/ha, visual rating after 10 days",0
same,Blackgrass plant response rating,"blackgrass [1]; Test C, 125 g ai/ha",0
same,Corn plant response rating,corn [2]; 500 g ai/ha,0
same,Corn plant response rating,"corn [2]; Test C, 125 g ai/ha",0
same,"Foxtail, Giant plant response rating","foxtail, giant [3]; 500 g ai/ha",0
same,"Foxtail, Giant plant response rating","foxtail, giant [3]; Test C, 125 g ai/ha",0
same,Goosegrass plant response rating,goosegrass [4]; 500 g ai/ha,0
same,Goosegrass plant response rating,"goosegrass [4]; Test C, 125 g ai/ha",0
same,Kochia plant response rating,kochia [5]; 500 g ai/ha,0
same,Kochia plant response rating,"kochia [5]; Test C, 125 g ai/ha",0
same,"Oat, Wild plant response rating","oat, wild [6]; 500 g ai/ha",0
same,"Oat, Wild plant response rating","oat, wild [6]; Test C, 125 g ai/ha",0
same,"Pigweed, Palmer plant response rating","pigweed, palmer [7]; 500 g ai/ha",0
same,"Pigweed, Palmer plant response rating","pigweed, palmer [7]; Test C, 125 g ai/ha",0
same,Ragweed plant response rating,ragweed [8]; 500 g ai/ha,0
same,Ragweed plant response rating,"ragweed [8]; Test C, 125 g ai/ha",0
same,"Ryegrass, Italian plant response rating","ryegrass, Italian [9]; 500 g ai/ha",0
same,"Ryegrass, Italian plant response rating","ryegrass, Italian [9]; Test C, 125 g ai/ha",0
same,Soybean plant response rating,soybean [10]; 500 g ai/ha,0
same,Soybean plant response rating,"soybean [10]; Test C, 125 g ai/ha",0
same,Wheat plant response rating,wheat [11]; 500 g ai/ha,0
same,Wheat plant response rating,"wheat [11]; Test C, 125 g ai/ha",0
same,"Plant response rating, Blackgrass",blackgrass [12]; [23],0
same,"Plant response rating, Blackgrass",blackgrass [12]; [24],0
same,"Plant response rating, Corn",corn [13]; [23],0
same,"Plant response rating, Corn",corn [13]; [24],0
same,"Plant response rating, Foxtail, Giant","foxtail, giant [14]; [23]",0
same,"Plant response rating, Foxtail, Giant","foxtail, giant [14]; [24]",0
same,"Plant response rating, Goosegrass",goosegrass [15]; [23],0
same,"Plant response rating, Goosegrass",goosegrass [15]; [24],0
same,"Plant response rating, Kochia",kochia [16]; [25],0
same,"Plant response rating, Oat, Wild","oat, wild [17]; [25]",0
same,"Plant response rating, Pigweed, Palmer","pigweed, palmer [18]; [25]",0
same,"Plant response rating, Ragweed",ragweed [19]; [25],0
same,"Plant response rating, Ryegrass, Italian","ryegrass, Italian [20]; [25]",0
same,"Plant response rating, Soybean",soybean [21]; [25],0
same,"Plant response rating, Wheat",wheat [22]; [25],0
same,"Plant response rating, Galium",galium; [23],0
same,"Plant response rating, Galium",galium; [24],0
same,"Plant response rating, Horseweed",horseweed; [23],0
same,"Plant response rating, Horseweed",horseweed; [24],0
same,"Plant response rating, Barnyardgrass (Flood)",barnyardgrass,0
same,"Plant response rating, Ducksalad (Flood)",ducksalad,0
same,"Plant response rating, Rice (Flood)",rice,0
same,"Plant response rating, Sedge, Umbrella (Flood)","sedge, umbrella",0
Cc1cccc2c1O[C@@H](C)CN2C(=O)c1cccc(-n2cnc(C#C[Si](C)(C)C)n2)c1 [Compound 284],Blackgrass plant response rating,blackgrass [1]; 500 g ai/ha,60
same,Blackgrass plant response rating,"blackgrass [1]; Test C, 125 g ai/ha",0
same,Corn plant response rating,corn [2]; 500 g ai/ha,0
same,Corn plant response rating,"corn [2]; Test C, 125 g ai/ha",0
same,"Foxtail, Giant plant response rating","foxtail, giant [3]; 500 g ai/ha",90
same,"Foxtail, Giant plant response rating","foxtail, giant [3]; Test C, 125 g ai/ha",0
same,Goosegrass plant response rating,goosegrass [4]; 500 g ai/ha,90
same,Goosegrass plant response rating,"goosegrass [4]; Test C, 125 g ai/ha",10
same,Kochia plant response rating,kochia [5]; 500 g ai/ha,10
same,Kochia plant response rating,"kochia [5]; Test C, 125 g ai/ha",0
same,"Oat, Wild plant response rating","oat, wild [6]; 500 g ai/ha",70
same,"Oat, Wild plant response rating","oat, wild [6]; Test C, 125 g ai/ha",20
same,"Pigweed, Palmer plant response rating","pigweed, palmer [7]; 500 g ai/ha",0
same,"Pigweed, Palmer plant response rating","pigweed, palmer [7]; Test C, 125 g ai/ha",0
same,Ragweed plant response rating,ragweed [8]; 500 g ai/ha,0
same,Ragweed plant response rating,"ragweed [8]; Test C, 125 g ai/ha",0
same,"Ryegrass, Italian plant response rating","ryegrass, Italian [9]; 500 g ai/ha",90
same,"Ryegrass, Italian plant response rating","ryegrass, Italian [9]; Test C, 125 g ai/ha",50
same,Soybean plant response rating,soybean [10]; 500 g ai/ha,0
same,Soybean plant response rating,"soybean [10]; Test C, 125 g ai/ha",0
same,Wheat plant response rating,wheat [11]; 500 g ai/ha,10
same,Wheat plant response rating,"wheat [11]; Test C, 125 g ai/ha",0
same,"Plant response rating, Blackgrass",blackgrass [12]; [23],0
same,"Plant response rating, Blackgrass",blackgrass [12]; [26],40
same,"Plant response rating, Corn",corn [13]; [23],0
same,"Plant response rating, Corn",corn [13]; [26],10
same,"Plant response rating, Foxtail, Giant","foxtail, giant [14]; [23]",10
same,"Plant response rating, Foxtail, Giant","foxtail, giant [14]; [26]",20
same,"Plant response rating, Goosegrass",goosegrass [15]; [23],10
same,"Plant response rating, Goosegrass",goosegrass [15]; [26],30
same,"Plant response rating, Kochia",kochia [16]; [25],10
same,"Plant response rating, Kochia",kochia [16]; [27],50
same,"Plant response rating, Oat, Wild","oat, wild [17]; [25]",10
same,"Plant response rating, Oat, Wild","oat, wild [17]; [27]",10
same,"Plant response rating, Pigweed, Palmer","pigweed, palmer [18]; [25]",40
same,"Plant response rating, Pigweed, Palmer","pigweed, palmer [18]; [27]",60
same,"Plant response rating, Ragweed",ragweed [19]; [25],0
same,"Plant response rating, Ragweed",ragweed [19]; [27],0
same,"Plant response rating, Ryegrass, Italian","ryegrass, Italian [20]; [25]",0
same,"Plant response rating, Ryegrass, Italian","ryegrass, Italian [20]; [27]",0
same,"Plant response rating, Soybean",soybean [21]; [25],20
same,"Plant response rating, Soybean",soybean [21]; [27],30
same,"Plant response rating, Wheat",wheat [22]; [25],10
same,"Plant response rating, Wheat",wheat [22]; [27],10
same,"Plant response rating, Galium",galium; [23],70
same,"Plant response rating, Galium",galium; [26],90
same,"Plant response rating, Horseweed",horseweed; [23],0
same,"Plant response rating, Horseweed",horseweed; [26],50
same,"Plant response rating, Barnyardgrass (Flood)",barnyardgrass,0
same,"Plant response rating, Ducksalad (Flood)",ducksalad,65
same,"Plant response rating, Rice (Flood)",rice,0
same,"Plant response rating, Sedge, Umbrella (Flood)","sedge, umbrella",0
